The source of these data is patent US20110054040A1, “Bicyclic Triterpenoid Iripallidal as a Novel Anti-Glioma and Anti-Neoplastic Therapy” (DEPARTMENT OF BIOTECHNOLOGY, priority 2008, published 2011).

Where two headings read alike, the source gives them in different places.

In one data set the test system is normal human monocytes. Put plainly: MTS cell viability assay, normal human monocytes. The format is cell-based. The conditions noted are these: 24 hours, serum free media. As to the method:
In another embodiment normal human monocytes were treated with different concentration of Iripallidal in serum free media for 24 hours and cell viability was assessed using the MTS assay. Values were expressed as a percentage relative to those obtained in controls.
Whole blood (5 ml) was drawn from normal human volunteers and mononuclear cells were separated by Histopaque density gradient centrifugation. Briefly, blood was diluted twice with phosphate buffered saline (PBS) and layered over Histopaque (Sigma, Mo., USA) and centrifuged at 1500 rpm for 20 mins at room temperature. Peripheral blood mononuclear cells (PBMC) were collected carefully at the interface of Histopaque and plasma, diluted five times with PBS and centrifuged at 1500 rpm for 10 mins. PBMC thus pelleted were washed twice with PBS and seeded onto glass petri dishes and allowed to adhere for 3 hrs. Non adherent cells were removed by gentle washing with PBS twice and the adherent monocytes were used in MTS assay.
Cell viability was assessed using the [3-(4,5-dimethylthiazol-2-yl)-5-(3-carboxymethoxy-phenyl)-2-(4-sulfophenyl)-2H-tetrazolium, inner salt] (MTS) as described earlier. […] After 4 hours of incubation the absorbance reflecting reduction of MTS by viable cells was determined at 490 nm. Values were expressed as a percentage relative to those obtained in controls.

Another data set deals with ERK1/2. Particulars: downstream indicator of Ras activation, cited from earlier work.
The subject of data set [1] is Ras. Nature of the data set: Western blot analysis of Ras expression in glioma cells. The format is cell-based, human. Particulars: GBM cell lines (A172, U87MG); Iripallidal 20 μM. As to the method:
In another embodiment, protein isolated from glioma cells were treated with Iripallidal and electrophoresed on 6% to 10% polyacrylamide gel, Western blotting was performed and expression of Ras determined as described previously.
(§1) Glioblastoma cell lines U87MG, A172, T98G, and LN229; breast cancer cell line MCF7, cervical cancer cell line HeLa, hepatocellular carcinoma cell line HepG2, acute myeloid leukemia THP1, colon carcinoma cell line HT-29 and acute myeloid leukemic cell line THP1 were obtained from American Type Culture Collection and cultured in DMEM supplemented with 10% fetal bovine serum. On attaining semi-confluence, cells were switched to serum free media and after 12 hours, cells were treated with different concentration of Iripallidal (in DMSO) in serum free media for 24 hours. Following treatment, the cells were processed for Western blot analysis. DMSO treated cells were used as controls.
Protein from whole cell lysates were isolated as described previously. Twenty to fifty μg of protein isolated from cells treated with Iripallidal was electrophoresed on 6% to 10% polyacrylamide gel. Western blotting was performed and Ras expression was determined as described. The blots were stripped and reprobed with anti-β-actin to determine equivalent loading.
Background: In western blotting, separated proteins are transferred to a membrane and probed.

For data set [2], the system named is Ras. Put plainly: Ras activity (Ras-GTP pull-down with Raf-1 Ras binding domain) in glioma cells. The format is cell-based, human. The conditions noted are these: Iripallidal 20 μM, compared to the control. On the procedure: In another embodiment the Ras activity was performed using a commercially available kit from Upstate Biotechnology (Temecula, Calif., USA). Briefly, glioma cell lines (2×10^6) treated with Iripallidal were lysed and the cleared lysates were incubated with bead-bound RAS binding domain of Raf-1 protein to precipitate Ras-GTP. The precipitates were subjected to SDS-PAGE and Western blotting.
Effect of Iripallidal on the level of GTP-bound Ras. The level of Ras-GTP in protein extracts of control and Iripallidal treated glioma cells was determined by the ability of Ras-GTP to bind to a specific protein domain of Raf in the form of a GST-fusion protein. […] IR1 denotes Iripallidal.

Data set [3] relates to panel of 60 human cancer cell lines. Particulars: NCI 60 cell line screen; cited from earlier work.
Data set [4] deals with MCF-7, HeLa, HepG2, THP1, HT-29 cells. Nature of the data set: MTS cell viability assay, breast, cervical, hepatocellular, myeloid leukemia and colon cancer cell lines. The format is cell-based, human. As to the method:
In another embodiment colon cancer cell line HT29, breast cancer line MCF-7, cervical cancer cell line HeLa, hepatocellular carcinoma cell line HepG2 and acute myeloid leukemic cell line THP1 were treated with different concentration of Iripallidal (in Dimethyl sulphoxide, DMSO) in serum free media for 24 hours and cell viability was assessed using the MTS assay. Values were expressed as a percentage relative to those obtained in controls.
Glioblastoma cell lines U87MG, A172, T98G, and LN229; breast cancer cell line MCF7, cervical cancer cell line HeLa, hepatocellular carcinoma cell line HepG2, acute myeloid leukemia THP1, colon carcinoma cell line HT-29 and acute myeloid leukemic cell line THP1 were obtained from American Type Culture Collection and cultured in DMEM supplemented with 10% fetal bovine serum. On attaining semi-confluence, cells were switched to serum free media and after 12 hours, cells were treated with different concentration of Iripallidal (in DMSO) in serum free media for 24 hours. […]
(§2) Cell viability was assessed using the [3-(4,5-dimethylthiazol-2-yl)-5-(3-carboxymethoxy-phenyl)-2-(4-sulfophenyl)-2H-tetrazolium, inner salt] […] After 4 hours of incubation the absorbance reflecting reduction of MTS by viable cells was determined at 490 nm. Values were expressed as a percentage relative to those obtained in controls.
(Tetrazolium dyes change colour on reduction, which living cells bring about.)

For another data set, the target named is protein kinase C alpha (Homo sapiens, UniProt P17252). The conditions noted are these: cited from earlier work.
The subject of data set [5] is U87MG, A172, LN229 and T98G cells. Put plainly: MTS cell viability assay, glioma cell lines. The format is cell-based, human. The conditions noted are these: 24 hours, serum free media, in vitro. As to the method: In another embodiment GBM cell lines U87MG, A172, T98G, and LN229 were treated with different concentration of Iripallidal (in Dimethyl sulphoxide, DMSO) in serum free media for 24 hours and cell viability was assessed using the [3-(4,5-dimethylthiazol-2-yl)-5-(3-carboxymethoxy-phenyl)-2-(4-sulfophenyl)-2H-tetrazolium, inner salt] (MTS) assay. Values were expressed as percent cell viability relative to control.
as §1, with “DMSO treated cells were used as controls.” left out
as §2

The target of the next data set is T1, RasGRP3 (Homo sapiens, UniProt Q8IV61).
T1 sequence (Q8IV61 1-690): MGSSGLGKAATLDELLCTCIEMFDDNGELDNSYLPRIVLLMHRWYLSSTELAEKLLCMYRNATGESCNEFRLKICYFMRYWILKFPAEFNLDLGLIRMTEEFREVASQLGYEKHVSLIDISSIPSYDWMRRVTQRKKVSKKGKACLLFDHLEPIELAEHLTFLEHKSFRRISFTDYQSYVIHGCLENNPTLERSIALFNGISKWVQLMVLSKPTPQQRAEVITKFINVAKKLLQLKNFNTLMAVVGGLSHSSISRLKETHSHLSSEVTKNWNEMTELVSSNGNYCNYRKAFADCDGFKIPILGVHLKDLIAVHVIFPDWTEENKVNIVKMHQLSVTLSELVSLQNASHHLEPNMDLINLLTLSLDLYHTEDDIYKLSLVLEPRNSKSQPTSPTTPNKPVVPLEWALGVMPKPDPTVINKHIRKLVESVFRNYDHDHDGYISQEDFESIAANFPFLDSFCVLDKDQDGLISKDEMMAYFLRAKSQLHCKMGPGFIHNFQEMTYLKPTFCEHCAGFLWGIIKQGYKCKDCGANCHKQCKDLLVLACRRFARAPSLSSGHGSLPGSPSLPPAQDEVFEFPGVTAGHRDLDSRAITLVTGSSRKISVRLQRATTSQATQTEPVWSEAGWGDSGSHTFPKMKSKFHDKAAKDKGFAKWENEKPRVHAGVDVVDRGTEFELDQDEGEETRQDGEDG
Particulars: cited from earlier work.

Regarding `CC1=CC[C@H](C)C(C)(C)C1/C=C/C(C)=C/CC[C@@]1(CO)[C@H](CCCO)/C(=C(/C)C=O)CC[C@]1(C)O` (single isomer, unassigned; (-)) [Iripallidal], in the data set with normal human monocytes, the “viability of normal human monocytes” value was “does not effect the viability”. The entries for the “phosphorylation of ERK1/2” value in the data set on ERK1/2 and with ERK1/2 (listed as NSC 631939) were “induces phosphorylation of ERK1/2 in a Ras dependent manner” and “induced phosphorylation of ERK1/2”, respectively. The Ras levels result in the data set on Ras [1] was “elevated both Ras levels”. Also, the “Ras activity (Ras-GTP level)” value in the data set on Ras [2] is recorded as “An increase Ras activity was observed”. For the same compound, the anti-proliferative activity result in [3] was “micromolar to nanomolar range”. Further, the “proliferation of breast, colon, cervical, liver and myeloid cancer cells” value in [4] (24 hours, serum free media) is given as “inhibited the proliferation”. Further, the “reduction of proliferation of cancer cell lines” value in data set [4] (cancer cell lines, not specified further) is listed as 50-70%. The “binding to protein kinase C alpha” value on protein kinase C alpha is reported as “bound”. Besides, the “viability of glioblastoma cell lines” value in [5] is “decreased the viability of glioblastoma cell lines significantly”. The “binding to RasGRP3” value on RasGRP3 is on record as “binds to RasGRP3”; on RasGRP3 (listed as NSC 631939), “bound”.
For the compound `C=C(/C=C/C=C(/CCC=C(C)C)COC(C)=O)[C@@H]1CC[C@]2([C@H](CCCO)/C(=C(/C)C=O)CC[C@]2(C)O)[C@@H]1O` [NSC 631941, reference compound], the “phosphorylation of ERK1/2” value with ERK1/2 was “induced phosphorylation of ERK1/2”. Further, on protein kinase C alpha, the “binding to protein kinase C alpha” value is “bound”. The “binding to RasGRP3” value on RasGRP3 is on record as “bound”.
